Test results reported in patent US5622947A, “Benzoheterocyclic compounds and vasopressin antagonist and oxytocin antagonist compositions containing a benzoheterocyclic compound” (Otsuka Pharmaceutical Co., Ltd., priority 1992, dated 1997).
Where a name gives a salt, the structure may show the parent alone.

Target: T1, Oxytocin receptor (uterin muscle membrane preparation) (Rattus norvegicus, UniProt P70536)
T1 construct: was homogenized, which was used as a membrane; from tissue; host or cells: uterine muscle membranes from diethylstilbestrol-treated animals
T1 sequence (P70536 1-388): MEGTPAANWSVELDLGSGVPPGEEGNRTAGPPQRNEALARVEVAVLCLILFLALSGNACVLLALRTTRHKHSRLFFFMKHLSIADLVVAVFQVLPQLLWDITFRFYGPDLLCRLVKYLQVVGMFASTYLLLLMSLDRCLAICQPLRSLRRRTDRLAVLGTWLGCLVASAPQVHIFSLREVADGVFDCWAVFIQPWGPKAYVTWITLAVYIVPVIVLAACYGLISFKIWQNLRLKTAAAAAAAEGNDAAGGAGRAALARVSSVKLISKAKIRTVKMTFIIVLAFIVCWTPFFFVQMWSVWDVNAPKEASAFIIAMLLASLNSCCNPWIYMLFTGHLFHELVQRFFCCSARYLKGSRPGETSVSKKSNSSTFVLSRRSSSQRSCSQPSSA
Experiment: Oxytocin receptor binding assay
Conditions: [3H]-oxytocin 10^-9 M, 25°, one hour, pH 8.0, uterin muscle membrane, DES-treated
Method: Test-5 Oxytocin receptor binding assay
In accordance with Chan's method [by W. Y. Chan, et al.: Endocrinology, 126, 2095-2101 (1990)], the uterin muscle benn injected subcutaneously with diethylstilbe-sterol (DES) the day before and was homogenized, which was used as a membrane prepara tion. The membrane preparation (0.2 mg), [^3 H]-oxytocin (100,000 dpm, 10^-9 M), a test compound (10^-9 to 10^-5 M) were incubated at 25°. for one hour in 100 mM Tris-HCl buffer (pH=8.0, 250 μl) containing 5 mM MgCl2, 1 mM EDTA and 0.1% BSA. The mixture was filtered through a glass filter (GF/F) so as to separate the membrane preparation combining with [^3 H]-oxytocin, then, was washed twicw with the buffer (5 ml). The glass filter was put into a vial and mixed with Aquasole (a liquid scintillation cocktail). The amount of [^3 H]-oxytocin combining w ith the membrane was measured by a liquid scintillation counter. The rate of the inhibitory effect of the test compound was calculated according to the equation as follows: […]
C1 : the amount of [^3 H]-oxytocin combining with the membrane in the presence of a test compound (in known amount),
C0 : the amount of [^3 H]-oxytocin combinig with the membrane in the absence of a test compound,
B: the amount of [^3 H]-oxytocin combining with the membrane in the presence of the excess amount of oxytocin (5×10^-6 M).
The results are expressed as IC50 values, which is the concentration of the test compound required to achieve the inhibitory effect in the rate of 50%.

`COc1cc(NC(=O)c2cccc3c2OCCC3)ccc1C(=O)N1CCCC(CC(=O)N2CCN(C)CC2)c2cc(Cl)ccc21` (stereo not shown) [Example 183] was tested, and the IC50 was 4410 nM.

`Cc1ccccc1C(=O)Nc1ccc(C(=O)N2CCCC(CC(=O)N(C)C)c3cc(Cl)ccc32)cc1` (stereo not shown) [Example 111, 5-Dimethylaminocarbonylmethyl-7-chloro-1-[4-(2-methylbenzoylamino)benzoyl]-2,3,4,5-tetrahydro-1H-benzoazepine] showed an IC50 of 250 nM.

`COc1cc(NC(=O)c2ccccc2Br)ccc1C(=O)N1CCCC(CC(=O)N2CCC(NC(C)=O)CC2)c2cc(F)ccc21` (stereo not shown) [Example 60, 5-[(4-Acetylamino-1-piperidinyl)carbonylmethyl]-7-fluoro-1-[2-methoxy-4-(2-bromobenzoylamino)benzoyl]-2,3,4,5-tetrahydro-1H-benzoazepine] showed an IC50 of 99 nM.

`CN1CCN(C(=O)CC2CCCN(C(=O)c3ccc(NC(=O)c4ccccc4)cc3)c3ccc(Cl)cc32)CC1` (stereo not shown) [Example 178, 5-(4-Methyl-1-piperazinyl)carbonylmethyl-7-chloro-1-(4-benzoylaminobenzoyl)-2,3,4,5-tetrahydro-1H-benzoazepine] showed an IC50 of 969 nM.

With `Cc1ccccc1C(=O)Nc1ccc(C(=O)N2CCCC(CC(=O)N3CCN(C)CC3)c3cc(Cl)ccc32)cc1` (stereo not shown) [Example 109] the IC50 was 360 nM.

`O=C(Nc1ccc(C(=O)N2CCCC(OCCO)c3cc(Cl)ccc32)cc1)c1ccccc1Cl` (stereo not shown) [Example 113] was tested, and the IC50 was 250 nM.

`COc1cc(NC(=O)c2ccccc2C)ccc1C(=O)N1CCCC(CC(=O)N2CCC(N(C)C)CC2)c2cc(F)ccc21` (stereo not shown) [Example 110] showed an IC50 of 220 nM.

Work on `COc1cc(NC(=O)c2ccccc2Cl)ccc1C(=O)N1CCCC(CC(=O)N2CCN(c3ccccc3Cl)CC2)c2cc(Cl)ccc21` (stereo not shown) [Example 181] yielded an IC50 of 606 nM.

`CNC(=O)CC1CCCN(C(=O)c2ccc(NC(=O)c3ccccc3Cl)cc2C)c2ccc(Cl)cc21` (stereo not shown) [Example 122, 5-Methylaminocarbonylmethyl-7-chloro-1-[2-methyl-4-(2-chlorobenzoylamino)benzoyl]-2,3,4,5-tetrahydro-1H-benzoazepine] gave an IC50 of 2200 nM.

`CN(C)C(=O)CC1CCCN(C(=O)c2ccc(NC(=O)c3ccccc3OCCCCNC(C)(C)C)cc2)c2ccc(Cl)cc21` (stereo not shown) [Example 182] gave an IC50 of 4710 nM.

`COc1cc(C(=O)N2CCCC(OC(=O)[C@@H](N)CCCCN)c3cc(Cl)ccc32)ccc1NC(=O)c1ccccc1C` (stereo partly shown) [Example 107] showed an IC50 of 1300 nM.

Compound `COc1cc(NC(=O)c2ccccc2C)ccc1C(=O)N1CCCC(OC(=O)CN2CCOCC2)c2cc(Cl)ccc21` (stereo not shown) [Example 17, 5-(2-Morpholinoacetyloxy)-7-chloro-1-[2-methoxy-4-(2-methylbenzoylamino)benzoyl]-2,3,4,5-tetrahydro-1H-benzoazepine] has an IC50 of 46 nM.

`COc1cc(NC(=O)c2ccccc2Cl)ccc1C(=O)N1CCC=C(CCN2CCN(C(C)=O)CC2)c2cc(Cl)ccc21` [Example 179, 5-[2-(4-Acetyl-1-piperazinyl)ethyl]-7-chloro-1-[2-methoxy-4-(2-chlorobenzoylamino)benzoyl]-2,3,-dihydro-1H-benzoazepine] was tested, and the IC50 was 2600 nM.

`COc1cc(NC(=O)Cc2ccccc2C)ccc1C(=O)N1CCCC(OC(=O)CN(C)C)c2cc(Cl)ccc21` (stereo not shown) [Example 68, 5-(2-Dimethylaminoacetyloxy)-7-chloro-1-{2-methoxy-4-[2-(2-methylphenyl)acetylamino]benzoyl}-2,3,4,5-tetrahydro-1H-benzoazepine] gave an IC50 of 230 nM.

`COc1cc(NC(=O)c2ccccc2Cl)ccc1C(=O)N1CCCC(OCCn2cncn2)c2cc(Cl)ccc21` (stereo not shown) [Example 176, 5-[2-(1,2,4-Triazol-1-yl)ethoxy]-7-chloro-1-[2-methoxy-4-(2-chlorobenzoylamino)benzoyl]-2,3,4,5-tetrahydro-1H-benzoazepine] gave an IC50 of 387 nM.

With `Cc1ccccc1C(=O)Nc1ccc(C(=O)N2CCCC(CC(=O)N3CCC(N(C)C)CC3)c3cc(Cl)ccc32)c(C)c1` (stereo not shown) [Example 118, 5-(4-Dimethylamino-1-piperidinyl)carbonylmethyl-7-chloro-1-[2-methyl-4-(2-methylbenzoylamino)benzoyl]-2,3,4,5-tetrahydro-1H-benzoazepine.cndot.hydrochloride] the IC50 was 3200 nM.

`CC(=O)N1CCN(CCC2CCCN(C(=O)c3ccc(NC(=O)c4ccccc4C)cc3Cl)c3ccc(Cl)cc32)CC1` (stereo not shown) [Example 174, 5-[2-(4-Acetyl-1-piperazinyl)ethyl]-7-chloro-1-[2-chloro-4-(2-methylbenzoylamino)benzoyl]-2,3,4,5-tetrahydro-1H-benzoazepine] was tested, and the IC50 was 1050 nM.

Work on `Cc1ccccc1CC(=O)Nc1ccc(C(=O)N2CCCC(O)c3cc(Cl)ccc32)cc1` (stereo not shown) [Example 106, 5-Hydroxy-7-chloro-1-{4-[2-(2-methylphenyl)acetylamino]benzoyl}-2,3,4,5-tetrahydro-1H-benzoazepine] yielded an IC50 of 600 nM.

`Cc1ccccc1C(=O)Nc1ccc(C(=O)N2CCCC(CC(N)=O)c3cc(Cl)ccc32)cc1` (stereo not shown) [Example 112, 5-Carbamoylmethyl-7-chloro-1-[4-(2-methylbenzoylamino)benzoyl]-2,3,4,5-tetrahydro-1H-benzoazepine] gave an IC50 of 280 nM.

Work on `Cc1ccccc1C(=O)Nc1ccc(C(=O)N2CCCC(CCN3CCOCC3)c3cc(Cl)ccc32)c(C)c1` (stereo not shown) [Example 124, 5-Morpholinoethyl-7-chloro-1-[2-methyl-4-(2-methylbenzoylamino)benzoyl]-2,3,4,5-tetrahydro-1H-benzoazepine] yielded an IC50 of 2800 nM.

Compound `COc1cc(C(=O)N2CCCC(CC(=O)N(C)C)c3cc(Cl)ccc32)ccc1NC(=O)c1ccccc1C` (stereo not shown) [Example 32, 5-Dimethylaminocarbonylmethyl-7-chloro-1-[3-methoxy-4-(2-methylbenzoylamino)benzoyl]-2,3,4,5-tetrahydro-1H-benzoazepine] has an IC50 of 610 nM.

`COc1cc(C(=O)N2CCCC(CC(=O)N3CCCN(C)CC3)c3cc(Cl)ccc32)ccc1NC(=O)c1ccccc1Br` (stereo not shown) [Example 185] gave an IC50 of 162 nM.

`CC(=O)NC1CCN(CCCCOc2ccc(Cl)c(C(=O)Nc3ccc(C(=O)N4CCCCc5cc(Cl)ccc54)cc3)c2)CC1` [Example 184] was tested, and the IC50 was 3670 nM.

Compound `Cc1ccccc1C(=O)Nc1ccc(C(=O)N2CCCC(CC(=O)N3CCNCC3)c3cc(Cl)ccc32)c(C)c1` (stereo not shown) [Example 115] has an IC50 of 2100 nM.

`CCN(CC)CCN(CC)C(=O)CC1CCCN(C(=O)c2ccc(NC(=O)c3ccccc3Cl)cc2OC)c2ccc(Cl)cc21` (stereo not shown) [Example 175, 5-[N-(2-Diethylaminoethyl)-N-ethylamino]-carbonylmethyl-7-chloro-1-[2-methoxy-4-(2-chlorobenzoylamino)benzoyl]-2,3,4,5-tetrahydro-1H-benzoazepine] was tested, and the IC50 was 13 nM.

Work on `Cc1ccccc1C(=O)Nc1ccc(C(=O)N2CCCC(CC(=O)N3CCN(C)CC3)c3cc(Cl)ccc32)c(Cl)c1` (stereo not shown) [Example 108] yielded an IC50 of 1900 nM.

For `C=CCNCCC1CCCN(C(=O)c2ccc(NC(=O)c3ccccc3Cl)cc2C)c2ccc(Cl)cc21` (stereo not shown) [Example 121, 5-(2-Allylaminoethyl)-7-chloro-1-[2-methyl-4-(2-chlorobenzoylamino)benzoyl]-2,3,4,5-tetrahydro-1H-benzoazepine], the IC50 was 2300 nM.

`COc1cc(C(=O)N2CCCC(CC(=O)N3CCN(C)CC3)c3cc(Cl)ccc32)ccc1NC(=O)c1ccccc1Cl` (stereo not shown) [Example 117, 5-(4-Methyl-1-piperazinyl)carbonylmethyl-7-chloro-1-[3-methoxy-4-(2-chlorobenzoylamino)benzoyl]-2,3,4,5-tetrahydro-1H-benzoazepine.cndot.hydrochlorid] gave an IC50 of 320 nM.

Work on `Cc1ccccc1C(=O)Nc1ccc(C(=O)N2CCCC(CC(N)=O)c3cc(Cl)ccc32)c(Cl)c1` (stereo not shown) [Example 173, 5-Carbamoylmethyl-7-chloro-1-[2-chloro-4-(2-methylbenzoylamino)benzoyl]-2,3,4,5-tetrahydro-1H-benzoazepine] yielded an IC50 of 2190 nM.

Work on `COc1cc(NC(=O)c2ccccc2Cl)ccc1C(=O)N1CCCC(OCCN2CCCN(C)CC2)c2cc(Cl)ccc21` (stereo not shown) [Example 180, 5-[2-(4-Methyl-1-homopiperazinyl)ethoxy]-7-chloro-1-[2-methoxy-4-(2-chlorobenzoylamino)benzoyl]-2,3,4,5-tetrahydro-1H-benzoazepine] yielded an IC50 of 284 nM.

Work on `COc1cc(NC(=O)c2ccccc2Cl)ccc1C(=O)N1CCCC(OCCNC2CCCC2)c2cc(Cl)ccc21` (stereo not shown) [Example 177, 5-(2-Cyclopentylaminoethoxy)-7-chloro-1-[2-methoxy-4-(2-chlorobenzoylamino)benzoyl]-2,3,4,5-tetrahydro-1H-benzoazepine] yielded an IC50 of 258 nM.
